What follows are compounds tested against T1, recombinant human DHODH (Homo sapiens, UniProt Q02127) (assay: Inhibition assay of DHODH activity (human enzyme)). Conditions: recombinant human DHODH, class symbols (in nM); read-out: human IC50-Value.
T1 construct: provided by Prof; M. Löffler, Marburg, Germany (gift, not purchased)
Type: biochemical
Experimental: The standard assay mixture contained 50 μM decyclo ubichinone, 100 μM dihydroorotate, 60 μM 2,6-dichloroindophenol, as well as 20 mU DHODH. The volume activity of the recombinant enzyme used was 30 U/ml. Measurements were conducted in 50 mM TrisHCl (150 mM KCl, 0,1% Triton X-100, pH. 8,0) at 30° C. in a final volume of 1 ml. The components were mixed, and the reaction was started by adding dihydroorotate. The course of reaction was followed by spectrophotometrically measuring the decrease in absorption at 600 nm for 2 min.
Inhibitory studies were conducted in a standard assay with additional variable amounts of inhibitor.
These investigations were carried out with recombinant human as well as with recombinant murine DHODH provided by Prof. M. Löffler, Marburg, Germany [M. Löffler, Chem. Biol. Interact.

T1 sequence (Q02127 whole entry): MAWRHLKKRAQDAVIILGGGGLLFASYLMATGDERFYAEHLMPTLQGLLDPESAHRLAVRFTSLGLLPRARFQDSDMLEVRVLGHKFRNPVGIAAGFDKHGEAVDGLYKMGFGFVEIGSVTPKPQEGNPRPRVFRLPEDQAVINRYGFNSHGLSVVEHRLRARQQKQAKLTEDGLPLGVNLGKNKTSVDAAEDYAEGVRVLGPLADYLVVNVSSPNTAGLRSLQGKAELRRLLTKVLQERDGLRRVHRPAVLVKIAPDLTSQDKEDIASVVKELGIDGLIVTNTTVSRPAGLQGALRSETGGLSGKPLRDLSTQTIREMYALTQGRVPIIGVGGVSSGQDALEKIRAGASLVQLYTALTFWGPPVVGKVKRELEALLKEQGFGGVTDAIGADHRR

Row | SMILES | IC50 [nM]
1 | O=C(O)C1=C(C(=O)Oc2ccc(-c3ccccc3)cc2)CCC1 [Compound 75] | > 1500
2 | O=C(O)C1=C(C(=O)Nc2ccc(-c3cccc(OC(F)(F)F)c3)cc2)CCC1 [Compound 43] | < 800
3 | O=C(O)C1=C(C(=O)Nc2ccc(Oc3ccc(Cl)cc3)cc2)CCC1 [Compound 61] | > 1500
4 | O=C(O)C1=C(C(=O)NCCCCc2ccccc2)CCC1 [Compound 70] | > 1500
5 | COc1ccc(-c2ccc(NC(=O)C3=C(C(=O)O)CCC3)cc2Cl)cn1 [Compound 22] | < 800
6 | COc1ccccc1-c1ccc(NC(=O)C2=C(C(=O)O)CCC2)cc1 [Compound 15] | < 800
7 | COc1ccc(Oc2ccc(C(F)(F)F)cc2NC(=O)C2=C(C(=O)O)CCC2)cc1 [Compound 59] | > 1500
8 | O=C(O)C1=C(C(=O)Nc2ccc(-c3ccccc3)cc2)CS(=O)(=O)C1 [Compound 49] | > 1500
9 | O=C(O)C1=C(C(=O)Nc2ccc(-c3cc4ccccc4s3)cc2F)CCC1 [Compound 45] | < 800
10 | O=C(O)C1=C(C(=O)Nc2ccc(OCc3ccccc3)c(Cl)c2)CCC1 [Compound 72] | < 800
11 | COc1cc(-c2ccc(NC(=O)C3=C(C(=O)O)CCC3)c(OC)c2)ccc1NC(=O)C1=C(C(=O)O)CCC1 [Compound 48] | > 1500
12 | O=C(O)C1=C(C(=O)Nc2ccc(OCc3ccccc3F)c(Cl)c2)CCC1 [Compound 74] | < 800
13 | N#Cc1cccc(-c2ccc(NC(=O)C3=C(C(=O)O)CCC3)cc2Cl)c1 [Compound 18] | < 800
14 | COc1ccccc1-c1ccc(NC(=O)C2=C(C(=O)O)CCC2)c([N+](=O)[O-])c1 [Compound 32] | < 800
15 | O=C(O)C1=C(C(=O)Nc2c(F)cc(-c3ccccc3F)cc2F)CCC1 [Compound 66] | < 800
16 | O=C(O)C1=C(C(=O)NC2CC2c2ccccc2)CCC1 (centres unmarked) [Compound 71] | > 1500
17 | COc1cccc(-c2ccc(NC(=O)C3=C(C(=O)O)CCC3)c(OC)c2)c1 [Compound 39] | < 800
18 | COc1ccc(-c2cc(F)c(NC(=O)C3=C(C(=O)O)CCC3)c(F)c2)c(OC)c1 [Compound 67] | < 800
19 | O=C(O)C1=C(C(=O)Nc2c(F)cc(-c3cccc(OC(F)(F)F)c3)cc2F)CCC1 [Compound 64] | < 800
20 | Cc1cc(-c2cc(F)c(NC(=O)C3=C(C(=O)O)CCC3)c(F)c2)ccc1F [Compound 30] | < 800
21 | CCOc1cccc(-c2ccc(NC(=O)C3=C(C(=O)O)CCC3)c(OC)c2)c1 [Compound 38] | < 800
22 | O=C(O)C1=C(C(=O)Nc2ccc(Oc3ccc(F)cc3F)cc2)CCC1 [Compound 60] | 800 to 1500
23 | COc1cc(-c2cccc(OC(F)(F)F)c2)ccc1NC(=O)C1=C(C(=O)O)CCC1 [Compound 35] | < 800
24 | O=C(O)C1=C(C(=O)Nc2ccc(-c3cc4ccccc4s3)cc2)CCC1 [Compound 44] | < 800
25 | CN(C(=O)C1=C(C(=O)O)CCC1)c1ccc(-c2ccccc2)cc1 [Compound 73] | > 1500
26 | N#Cc1ccc(-c2ccc(NC(=O)C3=C(C(=O)O)CCC3)cc2Cl)cc1 [Compound 21] | 800 to 1500
27 | COc1ccc(-c2ccc(NC(=O)C3=C(C(=O)O)CCC3)cc2C)cc1 [Compound 23] | < 800
28 | O=C(O)C1=C(C(=O)Nc2ccc(Oc3ccccc3)cc2)COC1 [Compound 51] | > 1500
29 | COc1cc(-c2ccccc2F)ccc1NC(=O)C1=C(C(=O)O)CCC1 [Compound 36] | < 800
30 | CCOc1ccccc1-c1ccc(NC(=O)C2=C(C(=O)O)CCC2)c(F)c1 [Compound 17] | < 800

Same assay, conditions: recombinant human DHODH, numeric values; read-out: human IC50-Value

Row | SMILES | IC50 [nM]
31 | Nc1ccc(Oc2ccc(NC(=O)C3=C(C(=O)O)CCCC3)cc2)cc1 [Compound 11] | 7000
32 | O=C(O)C1=C(C(=O)Nc2c(F)c(F)c(C(F)(F)F)c(F)c2F)CCC1 [Compound 07] | 1600
33 | O=C(O)C1=C(C(=O)Nc2c(F)c(F)cc(F)c2F)CCC1 [Compound 06] | 1300
34 | O=C(O)C1=C(C(=O)Nc2ccc(F)c(F)c2F)CCC1 [Compound 10] | 6800
35 | O=C(O)C1=C(C(=O)Nc2cc(C(F)(F)F)cc(C(F)(F)F)c2)CCC1 [Compound 03] | 1000
